From ChEMBL document CHEMBL1201862, “PubChem BioAssay data set” (2004) come the findings set out here.

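A five-concentration, 48-hour dose response in 96-well plates underlies each endpoint, interpolated linearly between surrounding concentrations. Here, GI50 denotes the concentration required for 50% inhibition of growth.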 Activity calls are given as the source filed them. Rule as the data show it: active = GI50 up to about 1.1 µM and inactive = higher.

Some test systems named below: SW-620; LOX IMVI; HT-29; OVCAR-4; CCRF-CEM; SNB-75; SK-MEL-2; SF-539; K562; M14; 786-0; HCT-116; SK-MEL-28; U-251; IGROV-1; MDA-N; MDA-MB-435; A498; OVCAR-5; HCT-15.
Common to all, as to experiment: NCI-60 cell line screen, 48 h

On to `CN(C)CC1CCC/C(=C\c2ccc(OC(=O)/C=C/c3ccccc3)cc2)C1=O` (stereo not given), for which the GI50 was 1.95 µM (inactive) in the test on SW-620; 0.538 µM (active) in the test with LOX IMVI; 1.87 µM (inactive) in the test on HT-29; 2.35 µM (inactive) in the test with OVCAR-4; 0.265 µM (active) in the test with CCRF-CEM; 6.04 µM (inactive) in the test on SNB-75. Also, the GI50 in the test with SK-MEL-2 is 3.52 µM (inactive); in the test with SF-539 it was 1.77 µM (inactive); with K562, 3.06 µM (inactive); in the test on M14, 2.36 µM (inactive); with 786-0, 0.776 µM (active); in the test on HCT-116, 1.34 µM (inactive). Moreover, the GI50 was 2.65 µM (inactive) in the test on SK-MEL-28; 1.72 µM (inactive) in the test on U-251; 3.85 µM (inactive) with IGROV-1; 2.52 µM (inactive) in the test on MDA-N; 2.59 µM (inactive) in the test with MDA-MB-435; 7.28 µM (inactive) in the test on A498. Moreover, the values for the GI50 with OVCAR-5 and in the test on HCT-15 were 2.45 µM (inactive) and 1.56 µM, respectively.
For `Cc1nc2cccc([N+](=O)[O-])c2c(NCCCN(C)C)c1C`, the GI50 with SW-620 is 29.4 µM (inactive); in the test on LOX IMVI it was 84.9 µM (inactive); in the test on HT-29, 19.9 µM (inactive); with OVCAR-4, 17.3 µM (inactive); in the test with CCRF-CEM, 21.3 µM (inactive); with SNB-75, 49.7 µM (inactive). Besides, the GI50 with SK-MEL-2 was > 51.3 µM (inactive); in the test on SF-539, 45.4 µM (inactive); with K562, 31.7 µM (inactive); with M14, 35.5 µM (inactive); in the test on 786-0, > 61.5 µM (inactive); in the test on HCT-116 it was 20.9 µM (inactive). In addition, the GI50 was > 100 µM (inactive) in the test on SK-MEL-28; > 79.8 µM (inactive) in the test on U-251; > 100 µM (inactive) in the test with IGROV-1; 26.7 µM (inactive) in the test on MDA-N; 71.4 µM (inactive) with MDA-MB-435; 34.8 µM (inactive) with A498. In addition, the GI50 was 27 µM (inactive) in the test on OVCAR-5 and 26.5 µM with HCT-15.
For `CO[C@]12CC(=O)C3(C(C[C@H]4CC5CC[C@H]6C[C@@H](OC(C)=O)CC[C@]6(OC(C)=O)C5C[C@@]43C)C1)C1C[C@H]3[C@@H]4CC[C@H]5C[C@@H](OC(C)=O)CC[C@]5(OC(C)=O)[C@H]4CC[C@]3(C)C12` (stereo not given in full), the GI50 was > 100 µM (inactive) with SW-620; 89.7 µM (inactive) with LOX IMVI; 82.4 µM (inactive) in the test with HT-29; 17.1 µM (inactive) in the test on OVCAR-4; 24.5 µM (inactive) in the test with CCRF-CEM; > 100 µM (inactive) in the test on SNB-75. The GI50 in the test on SK-MEL-2 is > 100 µM (inactive); with SF-539, > 100 µM (inactive); in the test with K562, 54.6 µM (inactive); in the test on M14, > 100 µM (inactive); in the test with 786-0, 64.4 µM (inactive); in the test with HCT-116, 42.5 µM (inactive). The GI50 with SK-MEL-28 is > 100 µM (inactive); with U-251, 75.5 µM (inactive); in the test on IGROV-1, > 100 µM (inactive); with MDA-N, 98.2 µM (inactive); in the test on MDA-MB-435, 56 µM (inactive); in the test on A498, > 100 µM (inactive). The figures for the GI50 with OVCAR-5 and in the test on HCT-15 were > 100 µM (inactive) and 90.2 µM, respectively.
Take `C=CC(C)(O)CCC1C(=C)C(O)CC2C(C)(C)CCCC12C` (stereo not given): the GI50 in the test on SW-620 was 20.7 µM (inactive); in the test with LOX IMVI, 19.2 µM (inactive); in the test with HT-29 it was 17.8 µM (inactive); with OVCAR-4, 20.5 µM (inactive); in the test on CCRF-CEM, 18.5 µM (inactive); with SNB-75, 48.3 µM (inactive). Besides, the GI50 in the test on SK-MEL-2 was 16.3 µM (inactive); with SF-539, 17.9 µM (inactive); with K562, 14.4 µM (inactive); in the test on M14, 16.3 µM (inactive); in the test on 786-0, 18.6 µM (inactive); in the test with HCT-116, 17.9 µM (inactive). The GI50 is 18.7 µM (inactive) in the test with SK-MEL-28; 15.5 µM (inactive) with U-251; 24.3 µM (inactive) in the test on IGROV-1; 20.4 µM (inactive) in the test on MDA-N; 18.6 µM (inactive) with MDA-MB-435; 18.3 µM (inactive) with A498. For the same molecule, the figures for the GI50 in the test with OVCAR-5 and in the test on HCT-15 were 20 µM (inactive) and 17.6 µM, respectively.
Regarding `CCCCOC(=O)NC(Nc1cccc(C(F)(F)F)c1)(C(F)(F)F)C(F)(F)F`, the GI50 in the test on SW-620 was 64.3 µM (inactive); in the test on LOX IMVI, 32.1 µM (inactive); in the test on HT-29, 50.8 µM (inactive); with OVCAR-4 it was 99.8 µM (inactive); in the test with CCRF-CEM, 29.6 µM (inactive); in the test on SNB-75, 33.6 µM (inactive). Also, the GI50 with SK-MEL-2 is 35.5 µM (inactive); with SF-539, 73.6 µM (inactive); in the test on K562, 30.5 µM (inactive); with M14 it was 47.3 µM (inactive); in the test with 786-0 it was 84.1 µM (inactive); with HCT-116 it was > 100 µM (inactive). Moreover, the GI50 in the test with SK-MEL-28 was > 100 µM (inactive); with U-251, 36.1 µM (inactive); in the test with IGROV-1, 49.5 µM (inactive); with MDA-N, 41.4 µM (inactive); with MDA-MB-435 it was 33.8 µM (inactive); in the test with A498 it was > 100 µM (inactive). In addition, the values for the GI50 with OVCAR-5 and in the test on HCT-15 were > 100 µM (inactive) and 45.2 µM, respectively.
For the molecule `CCOC(=O)C(SCCO)C(C(=O)OCC)n1cc(C)c(=O)[nH]c1=O` (stereo not given), the GI50 was 5.96 µM (inactive) in the test with SW-620; 6.84 µM (inactive) with LOX IMVI; 12.9 µM (inactive) in the test with HT-29; 23 µM (inactive) with OVCAR-4; 2.42 µM (inactive) in the test on CCRF-CEM; 34.1 µM (inactive) in the test with SNB-75. Further, the GI50 is 19.6 µM (inactive) in the test with SK-MEL-2; 23.1 µM (inactive) in the test with SF-539; 3.48 µM (inactive) in the test on K562; 11.6 µM (inactive) in the test with M14; 3.88 µM (inactive) with 786-0; 7.41 µM (inactive) in the test with HCT-116. Besides, the GI50 was 19.4 µM (inactive) in the test with SK-MEL-28; 11.5 µM (inactive) in the test with U-251; 25.4 µM (inactive) in the test with IGROV-1; 15.1 µM (inactive) with MDA-N; 14.3 µM (inactive) in the test on MDA-MB-435; 20.4 µM (inactive) in the test with A498. Besides, the figures for the GI50 in the test on OVCAR-5 and in the test with HCT-15 were 15 µM (inactive) and 4.41 µM, respectively.
As for `C=C(Br)C[N+]12CN3CN(CN(C3)C1)C2`, the GI50 in the test on SW-620, with LOX IMVI, in the test on HT-29, with OVCAR-4, in the test on CCRF-CEM and with SNB-75 was > 100 µM (inactive) in each case. For the same molecule, the GI50 in the test on SK-MEL-2, in the test with SF-539, in the test with K562, in the test with M14, with 786-0 and in the test on HCT-116 was > 100 µM (inactive) in each case. The GI50 in the test on SK-MEL-28, in the test on U-251, with IGROV-1, in the test on MDA-N, in the test on MDA-MB-435 and in the test with A498 was > 100 µM (inactive) throughout. In addition, the GI50 with OVCAR-5 is > 100 µM (inactive); in the test with HCT-15 it was more than 100 µM.
On to `c1n[nH]cc1C12C3C4C5C3C1C5C42` (stereo not given), for which the GI50 with SW-620 is > 100 µM (inactive); with LOX IMVI it was > 100 µM (inactive); in the test with HT-29 it was > 100 µM (inactive); in the test on OVCAR-4, > 100 µM (inactive); in the test on CCRF-CEM, > 100 µM (inactive); with SNB-75 it was 69.2 µM (inactive). Also, the GI50 with SK-MEL-2, with SF-539, with K562, in the test on M14, in the test with 786-0 and with HCT-116 was > 100 µM (inactive) in each case. For the same molecule, the GI50 in the test with SK-MEL-28, in the test on U-251, with IGROV-1, in the test with MDA-N, in the test on MDA-MB-435 and in the test with A498 was > 100 µM (inactive) in each case. Further, the GI50 in the test with OVCAR-5 was 94.6 µM (inactive); in the test on HCT-15 it was more than 100 µM.
For the molecule `CN1CCc2c3n(c4cc(Br)ccc24)[C@H](O)CCCC31` (stereo not given in full), the GI50 in the test with SW-620 is 1.96 µM (inactive); in the test with LOX IMVI, 1.74 µM (inactive); in the test with HT-29 it was 1.81 µM (inactive); in the test on OVCAR-4 it was 2.67 µM (inactive); in the test with CCRF-CEM, 1.87 µM (inactive); in the test with SNB-75 it was 2.3 µM (inactive). Further, the GI50 with SK-MEL-2 was 0.736 µM (active); in the test with SF-539, 1.9 µM (inactive); in the test with K562 it was 1.37 µM (inactive); with M14 it was 1.79 µM (inactive); with 786-0, 1.7 µM (inactive); in the test on HCT-116, 1.69 µM (inactive). Also, the GI50 in the test on SK-MEL-28 is 1.72 µM (inactive); in the test on U-251 it was 1.85 µM (inactive); in the test with IGROV-1 it was > 7.11 µM (inactive); in the test on MDA-N it was 1.82 µM (inactive); in the test with MDA-MB-435, 1.8 µM (inactive); with A498, 4.11 µM (inactive). Besides, the GI50 in the test on OVCAR-5 is > 5.18 µM (inactive); in the test on HCT-15, 2.62 µM.
In the case of `Cc1nc2c(Br)cc(Br)cc2c(=O)n1-c1ccccc1NC1OC(CO)C(O)C(O)C1O` (stereo not given), the GI50 was > 100 µM (inactive) in the test on SW-620; > 100 µM (inactive) in the test with LOX IMVI; > 100 µM (inactive) in the test on HT-29; > 100 µM (inactive) in the test with OVCAR-4; > 100 µM (inactive) in the test with CCRF-CEM; 61.1 µM (inactive) with SNB-75. The GI50 in the test with SK-MEL-2, with SF-539, in the test with K562, in the test with M14, in the test with 786-0 and with HCT-116 was > 100 µM (inactive) throughout. Further, the GI50 in the test on SK-MEL-28, with U-251, with IGROV-1, with MDA-N, with MDA-MB-435 and with A498 was > 100 µM (inactive) throughout. In addition, the GI50 was > 100 µM (inactive) with OVCAR-5 and more than 100 µM in the test with HCT-15.
